# Patent US10214477B2, “(Hetero)aryl cyclopropylamine compounds as LSD1 inhibitors” (Oryzon Genomics S.A., priority 2011, dated 2019)
# Where a name gives a salt, the structure may show the parent alone.
# Tested on: THP-1 cells
# Experiment: Induction of differentiation of THP-1 leukemia cells (CD11b membrane expression, flow cytometry)
# Type: cell-based
# Settings: Homo sapiens; percentage of CD11b positive THP-1 cells, 96 h treatment
# Experimental: By analyzing the induction of CD11b membrane expression on THP-1 cells we are assessing the ability of LSD1 inhibitors to induce terminal monocytic differentiation of a MLL-AF9 AML cell line. […] They carry t(9;11)(p21;q23) leading to MLL-MLLT3 (MLL-AF9) fusion gene. This cell line can undergo monocytic differentiation upon treatment with the appropriate stimulus. […] In this assay, 150, 000 THP-1 cells were seeded in 1 ml of complete culture medium in 6-well tissue culture plates. […] Cells were kept in the presence of test compound for 96 h at a 5% CO2 atmosphere at 37° C. After this treatment period, cells were harvested, washed twice with PBS buffer and placed in a V-bottom 96-well plate. Each treated sample was split in two. […] Percentage of CD11b positive cells, as an indicator of monocytic differentiation, was determined compared to isotype control antibody stained cells. EC50 values were calculated by non-linear regression analysis.
row,EC50 [nM],SMILES
1,0.8,"N[C@H]1CC[C@H](N[C@@H]2C[C@H]2c2ccccc2)CC1 [Example 5, (trans)-N1-((1R,2S)-2-phenylcyclopropyl)cyclohexane-1,4-diamine hydrochloride]"
2,5.3,"N[C@H]1CC[C@@H](N[C@@H]2C[C@H]2c2ccccc2)CC1 [Example 4, (cis)-N1-((1R,2S)-2-phenylcyclopropyl)cyclohexane-1,4-diamine hydrochloride]"
